Results: BindingDB's records for doi:10.1016/s0960-894x(03)00295-6 (Rensselaer Polytechnic Institute, 2003)

Test: Binding affinity was determined towards Opioid receptor delta 1 using [3H]naltrindole as radioligand

SMILES	Ki [nM]
Nc1ccc2c3c1O[C@H]1C(=O)CC[C@@]4(O)[C@@H](C2)N(CC2CC2)CC[C@]314 [10-amino-4-cyclopropylmethyl-17-hydroxy-(1S,5R,13R,17S)-12-oxa-4-azapentacyclo[9.6.1.01,13.05,17.07,18]octadeca-7(18),8,10-trien-14-one]	880
CC1[C@H]2Cc3ccc(NC=O)cc3[C@]1(C)CCN2CC1CC1 (stereo partly drawn) [(1R,9R,13R)-10-(cyclopropylmethyl)-1,13-dimethyl-10-azatricyclo[7.3.1.0~2,7~]trideca-2,4,6-trien-4-ylformamide]	9.8
C[C@@H]1C2Cc3ccc(NC=O)cc3[C@]1(C)CCN2CC1CC1 [(1S,9S,13S)-10-(cyclopropylmethyl)-1,13-dimethyl-10-azatricyclo[7.3.1.0~2,7~]trideca-2,4,6-trien-4-ylformamide]	> 10000
C[C@H]1C2Cc3ccc(N(C)C=O)cc3[C@@]1(C)CCN2CC1CC1 [N-((6S,11R)-3-Cyclopropylmethyl-6,11-dimethyl-1,2,3,4,5,6-hexahydro-2,6-methano-benzo[d]azocin-8-yl)-N-methyl-formamide]	6200
CC(=O)Nc1ccc2c(c1)[C@@]1(C)CCN(CC3CC3)C(C2)[C@@H]1C [N-((6S,11R)-3-Cyclopropylmethyl-6,11-dimethyl-1,2,3,4,5,6-hexahydro-2,6-methano-benzo[d]azocin-8-yl)-acetamide]	1700
C[C@H]1C2Cc3ccc(NC(=O)c4ccccc4)cc3[C@@]1(C)CCN2CC1CC1 [N-((6S,11R)-3-Cyclopropylmethyl-6,11-dimethyl-1,2,3,4,5,6-hexahydro-2,6-methano-benzo[d]azocin-8-yl)-benzamide]	2400
C[C@H]1C2Cc3ccc(NC=O)cc3[C@@]1(C)CCN2CC1CC1 [N-((6S,11R)-3-Cyclopropylmethyl-6,11-dimethyl-1,2,3,4,5,6-hexahydro-2,6-methano-benzo[d]azocin-8-yl)-formamide]	37
CC[C@@]12CCN(CC3CC3)C(C(=O)c3ccc(NC=O)cc31)[C@@H]2C [N-((6S,11R)-3-Cyclopropylmethyl-6-ethyl-11-methyl-1-oxo-1,2,3,4,5,6-hexahydro-2,6-methano-benzo[d]azocin-8-yl)-formamide]	52
O=CNc1ccc2c3c1O[C@H]1C(=O)CC[C@@]4(O)[C@@H](C2)N(CC2CC2)CC[C@]314 [N-[4-cyclopropylmethyl-17-hydroxy-14-oxo-(1S,5R,17S)-12-oxa-4-azapentacyclo[9.6.1.01,13.05,17.07,18]octadeca-7(18),8,10-trien-10-yl]methanamide]	420
